The target of one assay is T1, recombinant HDAC-1 (Homo sapiens, UniProt Q13547).
T1 construct: made in house; host or cells: HEK 293 cells
Nature of the assay: HDAC biochemical quench assay. To be noted: recombinant HDAC-1 purified from HEK 293 cells, 1 uM peptide substrate, 90 min at room temperature. The source says:
The function of histone deacetylase (HDAC) is the deacetylation of lysines in e.g. histone H4. A peptide of 17 amino acids derived from histone H4 was labeled with TAMRA at the C-terminus and QSY-7 at the N-terminus and was used as a substrate (TAMRA-first17 aa of histone H4-QSY7). Following deacetylation by HDAC, the enzyme Lys C is able to cleave the peptide after lysine. […] Inhibition of HDAC by compounds results in low signals because Lys C could not cleave the substrate and the quench effect persists.
For dose response curves, 10 concentrations were diluted 1:3 starting at 30 uM. 10 ul compound dilution were put into each well of a 384 well plate. 10 ul HDAC were added (recombinant HDAC-1 purified from HEK 293 cells; enzyme activity has to be assessed for each preparation). 10 ul peptide substrate was added (1 uM final concentration, derived from 1 mM stock solution diluted 1:1000 in test buffer). After 90 min incubation at room temperature, the reaction was stopped by addition of 20 ul test buffer including 3 ug/ml Lys C and 0.075% SDS. After overnight incubation the fluorescence signal of TAMRA was measured (Victor 2 from Wallac, absorption 544 nm, emission 590 nm). The O.D. of DMSO-treated control wells is 100%, the % inhibition of compound treated wells is calculated in relation to 100%. Based on 10 concentrations a IC50 curve is generated by using XL.fit3.
Test buffer used: a mixture of 10 mM Hepes pH8, 10 mM NaCl, 10% Glycerol, 0.005% Triton X100, 0.1 mM EDTA, 0.1 mM TCEP. As plates were used 384 well plates (black, Greiner, 781077).

For assay [1], the system named is HT-29 cells (human colon carcinoma cell line). Nature of the assay: MTT anti-proliferation assay on HT-29 cells. To be noted: Homo sapiens, 120 h, 384 well plates, 5 days, read-out: IC50 HT29 384. It counts as cell-based. The source says:
MTT (3-(4,5-dimethylthiazol-2-yl)-2,5-diphenyl tetrazolium bromide) is widely used for the quantitative determination of cytotoxic effects or in vitro chemosensitivity of tumor cells. The assay is based on the cleavage of the yellow tetrazolium salt (MTT) to purple formazan crystals by metabolic active cells. For details, see Rubinstein, L. V., et al., J. Natl. Cancer Inst. 82 (1990) 1113.
We proceeded as follows: HT-29 cells (human colon carcinoma cell line) were cultivated in RPMI 1640, 2.5% FCS, 2 mM glutamine, 100 u/ml penicillin, 100 ug/ml streptomycin. For the assay the cells were seeded in 384 well plates, 900 cells per well, in the same medium. At the next day, the compounds (dissolved 10 mM in DMSO) were added in various concentrations ranging from 30 uM to 1.5 nM. After 5 days, the MTT assay was done mainly according to the instructions of the manufacturer (Cell proliferation kit I, MTT, from Roche Molecular Biochemicals). In brief: MTT labeling reagent was added to a final concentration of 0.5 mg/ml, added and incubated for 4 hrs at 37° C., 5% CO2. During this incubation time purple formazan crystals are formed. After addition of the solubilization solution (20% SDS in 0.02 M HCl) the plates were incubated overnight at 37° C., 5% CO2. After careful mixing, the plates were measured in Victor 2 (scanning multiwell spectrophotometer, Wallac) at 550 nm.
A decrease in number of living cells results in a decrease in the total metabolic activity in the sample. The decrease directly correlates to the amount of purple color resulting from the solubilization of the purple formazan crystals. Determination of IC50 was done using XL-fit.

T1 sequence (Q13547 whole entry, species assumed): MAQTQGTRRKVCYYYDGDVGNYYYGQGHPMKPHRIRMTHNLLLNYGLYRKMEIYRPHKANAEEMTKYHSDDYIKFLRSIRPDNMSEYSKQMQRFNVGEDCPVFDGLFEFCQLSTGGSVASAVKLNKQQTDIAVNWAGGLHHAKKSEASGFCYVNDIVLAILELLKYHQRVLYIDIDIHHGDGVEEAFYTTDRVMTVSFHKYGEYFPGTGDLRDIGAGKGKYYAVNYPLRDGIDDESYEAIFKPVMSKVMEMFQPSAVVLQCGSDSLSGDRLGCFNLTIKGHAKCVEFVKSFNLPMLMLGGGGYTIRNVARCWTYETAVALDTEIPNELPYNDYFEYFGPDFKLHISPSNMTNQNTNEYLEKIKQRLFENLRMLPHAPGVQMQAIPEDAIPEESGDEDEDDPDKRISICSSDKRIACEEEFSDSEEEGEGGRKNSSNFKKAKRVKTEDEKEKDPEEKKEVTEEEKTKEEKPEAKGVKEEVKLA

As usually defined, the IC50 is the concentration at which inhibition is half-maximal. In the case of `Cc1ccc([C@@H](C)NC(=O)c2ccc(C(=O)NO)s2)cc1` [Example 2a, (R)-thiophene-2,5-dicarboxylic acid 2-hydroxyamide 5-[(1-p-tolyl-ethyl)-amide]], the IC50 was found to be 3.41 nM on recombinant HDAC-1 and 190 nM in assay [1].
Turning to `O=C(NO)c1ccc(C(=O)N[C@H]2CCCc3ccccc32)s1` [Example 4n, (S)-thiophene-2,5-dicarboxylic acid 2-hydroxyamide 5-[(1,2,3,4-tetrahydro-naphthalen-1-yl)-amide]], the results for the IC50 (on recombinant HDAC-1; in assay [1]) were 0.8 nM and 770 nM, respectively.
As for `C[C@H](NC(=O)c1ccc(C(=O)NO)s1)c1cccs1` [Example 9, (S)-Thiophene-2,5-dicarboxylic Acid 2-hydroxyamide 5-[(1-thiophen-2-yl-ethyl)-amide]], the IC50 at recombinant HDAC-1 was 3.82 nM; in assay [1], 520 nM.
The corresponding values for `O=C(NO)c1ccc(C(=O)N[C@@H]2CCc3ccccc32)s1` [Example 2m, (R)-thiophene-2,5-dicarboxylic acid 2-hydroxyamide 5-indan-1-ylamide] are 1.38 nM and 300 nM.
The corresponding values for `COc1cccc([C@@H](C)NC(=O)c2ccc(C(=O)NO)s2)c1` [Example 2h, (R)-thiophene-2,5-dicarboxylic acid 2-hydroxyamide 5-{[1-(3-methoxy-phenyl)-ethyl]-amide}] are 1.31 nM and 70 nM.

The record behind these values is patent publication US7098241B2, “Thiophene hydroxamic acid derivatives” (Hoffmann-La Roche Inc., priority 2002, dated 2006).
